Experimental data taken from patent publication US20220043347A1, “ACTINIC RAY-SENSITIVE OR RADIATION-SENSITIVE RESIN COMPOSITION, RESIST FILM, PATTERN FORMING METHOD, AND METHOD FOR MANUFACTURING ELECTRONIC DEVICE” (FUJIFILM Corporation, priority 2019, published 2022).

Assay: Acid dissociation constant (pKa) determined by computation (ACD/Labs Software Package 1; Gaussian 16 DFT where not calculable)
Details: acid generated from photoacid generator B
Text: In the present specification, an acid dissociation constant (pKa) represents a pKa in an aqueous solution, and is specifically a value determined by computation from a value based on a Hammett's substituent constant and database of publicly known literature values, using the following software package 1. Any of the pKa values described in the present specification indicate values determined by computation using the software package.
Software Package 1: Advanced Chemistry Development (ACD/Labs) Software V 8.14 for Solaris (1994-2007 ACD/Labs).
As described above, the pKa in the present specification refers to a value determined by computation from a value based on a Hammett's substituent constant and database of publicly known literature values, using the software package 1, but in a case where the pKa cannot be calculated by the method, a value obtained by Gaussian 16 based on density functional theory (DFT) shall be adopted.
In addition, the pKa in the present specification refers to a “pKa in an aqueous solution” as described above, but in a case where the pKa in an aqueous solution cannot be calculated, a “pKa in a dimethyl sulfoxide (DMSO) solution” shall be adopted.
Furthermore, in the measurement of the acid dissociation constant (pKa) of an acid generated from the photoacid generator B, specifically, the pKa is a value determined by subjecting a compound formed by substituting each cationic moiety in the compounds B-1 to B-29 with […](for example, in a case of the compound B-1, a compound formed by substituting the triphenylsulfonium cation with H^+) to computation from a value based on a Hammett's substituent constant and database of publicly known literature values, using Software Package 1 of ACD/Labs, as described above. In addition, in a case where pKa could not be calculated by the method, a value obtained by Gaussian 16 based on density functional theory (DFT) was adopted.
In the following table, “pKa1” represents an acid dissociation constant of the first stage, “pKa2” represents an acid dissociation constant of the second stage, and “pKa3” represents an acid dissociation constant of the third stage. A smaller value of pKa means a higher acidity. […]

| Structure (SMILES) | Difference between acid dissociation constant a1 and acid dissociation constant a2 |
| --- | --- |
| O=C(COC(=O)C(F)(F)S(=O)(=O)O)NC(=O)C(F)(F)F [Compound B-4] | 9.23 |
| COc1ccc([S+](c2ccccc2)c2ccccc2)cc1.COc1ccc([S+](c2ccccc2)c2ccccc2)cc1.O=S(=O)([O-])C(F)(F)C(F)(F)C(F)(F)S(=O)(=O)[N-]C1CCCCC1 [Compound B-2] | 9.59 |
| O=C(CC(F)(F)F)[N-]S(=O)(=O)C(F)(F)C(F)(F)C(F)(F)S(=O)(=O)[O-].c1ccc([S+](c2ccccc2)c2ccccc2)cc1.c1ccc([S+](c2ccccc2)c2ccccc2)cc1 [Compound B-1] | 3.17 |
| CS(=O)(=O)NS(=O)(=O)CCCOC(=O)C(F)(F)S(=O)(=O)O [Compound B-11] | 3.23 |
| CC(C)(C#N)C(=O)[N-]S(=O)(=O)C(F)(F)C(F)(F)C(F)(F)S(=O)(=O)[N-]S(C)(=O)=O.Cc1ccc(-[s+]2c3ccccc3c3ccccc32)cc1.Cc1ccc(-[s+]2c3ccccc3c3ccccc32)cc1 [Compound B-15] | 2.79 |
| CC1(OC(=O)c2cc(C(=O)NS(=O)(=O)C(F)(F)C(F)(F)C(F)(F)S(=O)(=O)NS(=O)(=O)C(F)(F)F)cc(C(=O)OC3(C)CCCC3)c2)CCCC1 [Compound B-23] | 10.13 |
| Cc1cc([S+](c2ccc(C(F)(F)F)cc2)c2ccc(C(F)(F)F)cc2)cc(C)c1OCC(=O)OC(C)(C)C.Cc1cc([S+](c2ccc(C(F)(F)F)cc2)c2ccc(C(F)(F)F)cc2)cc(C)c1OCC(=O)OC(C)(C)C.Cc1cc([S+](c2ccc(C(F)(F)F)cc2)c2ccc(C(F)(F)F)cc2)cc(C)c1OCC(=O)OC(C)(C)C.O=C([N-]S(=O)(=O)C(F)(F)C(F)(F)C(F)(F)S(=O)(=O)[O-])c1ccc(OS(=O)(=O)C(F)(F)C(F)(F)C(F)(F)S(=O)(=O)[O-])cc1 [Compound B-25] | 2.53 |
| CC1(C)C2CCC1(CS(=O)(=O)[N-]S(=O)(=O)C(F)(F)C(F)(F)C(F)(F)S(=O)(=O)[O-])C(=O)C2.Cc1ccc([S+](c2ccccc2)c2ccccc2)cc1.Cc1ccc([S+](c2ccccc2)c2ccccc2)cc1 (stereo not drawn) [Compound B-16] | 0.74 |
| CS(=O)(=O)[N-]C(=O)C(F)(F)C(F)(F)C(F)(F)C(=O)OCC(F)S(=O)(=O)[O-].c1ccc([S+](c2ccccc2)c2ccccc2)cc1.c1ccc([S+](c2ccccc2)c2ccccc2)cc1 (stereo not drawn) [Compound B-5] | 2.55 |
| O=C(O)C(F)(F)C(F)(F)C(F)(F)C(=O)OC12CC3CC(CC(COC(=O)C(F)(F)S(=O)(=O)O)(C3)C1)C2 [Compound B-3] | 2.92 |
| CCCCC(CC)C(=O)NS(=O)(=O)C(F)(F)C(F)(F)C(F)(F)S(=O)(=O)NS(=O)(=O)C(F)(F)F (stereo not drawn) [Compound B-12] | 11.4 |
| O=C([O-])CCCOC(=O)C(CS(=O)(=O)[O-])C(F)(F)F.O=S(=O)(c1ccc([S+](c2ccccc2)c2ccccc2)cc1)C1CCCCC1.O=S(=O)(c1ccc([S+](c2ccccc2)c2ccccc2)cc1)C1CCCCC1 [Compound B-14] | 3.63 |
| CC(C)(C)OC(=O)c1cc(OS(=O)(=O)C(F)(F)S(=O)(=O)[O-])cc(C(=O)[N-]S(=O)(=O)C(F)(F)S(=O)(=O)[O-])c1.Cc1cc(C)cc([S+](c2cc(C)cc(C)c2)c2cc(C(F)(F)F)cc(C(F)(F)F)c2)c1.Cc1cc(C)cc([S+](c2cc(C)cc(C)c2)c2cc(C(F)(F)F)cc(C(F)(F)F)c2)c1.Cc1cc(C)cc([S+](c2cc(C)cc(C)c2)c2cc(C(F)(F)F)cc(C(F)(F)F)c2)c1 [Compound B-26] | 4.99 |
| COc1ccc([S+](c2ccccc2)c2ccccc2)cc1.COc1ccc([S+](c2ccccc2)c2ccccc2)cc1.O=C(OCCCS(=O)(=O)[O-])C(F)(F)S(=O)(=O)[O-] [Compound B-6] | 4.82 |
| O=C(NS(=O)(=O)C(F)(F)C(F)(F)C(F)(F)S(=O)(=O)O)c1ccccc1I [Compound B-22] | 2.97 |
